These results are taken from article PMC11337205, “Unraveling Interspecies Differences in the Phase I Hepatic Metabolism of Alternariol and Alternariol Monomethyl Ether: Closing Data Gaps for a Comprehensive Risk Assessment” (Chemical Research in Toxicology, 2024).

The nature of data set [1]: Phase I metabolism kinetics (parent toxin loss) in NADPH-fortified human liver microsomes, LC-MS/MS. The following applies: for microsomal CLint: human, pH 7.4, human LMs, read-out: CLint (intrinsic clearance). In kind it is in vitro ADME. How it is done:
Pooled human LMs and pooled Sprague–Dawley rat hepatic microsomes, both originating from male donors, were purchased from Sigma-Aldrich (St. Louis, MO, USA) and Gibco, Thermo Fisher Scientific (Waltham, MA, USA), respectively. Porcine LMs were prepared according to an in-house-developed protocol based on the publication of Knights et al.[32] The liver of an approximately four-month-old female “Large White” (or “German Edelschwein”) pig was obtained from a local slaughterhouse. After slaughtering, the liver was placed on ice for about an hour, kept in ice-cold 50 mM tris(hydroxymethyl)aminomethane hydrochloride (Tris–HCl) (pH 7.4) for an additional hour while being transported, and processed immediately.
The kinetics of the phase I metabolism of AOH and AME was investigated by incubating human, rat (both 1 mg protein/mL), and porcine LMs (2 mg protein/mL) with 1, 10, 20, 50, and 100 μM AOH or 1, 10, 20, and 50 μM AME based on the protocol by Al-Subeihi et al.[34] The incubation solution contained a final concentration of 3 mM NADPH and 1 mM ascorbic acid in 200 mM Tris–HCl (pH 7.4). After preincubation (37 °C, 1 min, mixing at 250–300 rpm), the toxin stock was added in a 1:100 dilution, resulting in a total DMSO content of 1% and the desired toxin concentration. DMSO was selected for this assay because it is the least inhibitory of the solvents studied by Busby et al. on CYP1A1,[35] the primary enzyme involved in the hydroxylation of AOH and AME.[26] The well-established solubility of the test compounds in DMSO and DMSO-containing aqueous buffers facilitated laboratory work and ensured consistency with existing literature, thereby improving the comparability of results across studies, including those of Pfeiffer and colleagues.[25] In a preliminary investigation, incubation times of 5 and 10 min were chosen because they fall within the linear range of the transformation rate–time relationship, thereby ensuring initial rate conditions (Figure S1). When the selected incubation time (0–10 min) passed, one part of the sample was pipetted into two parts of ice-cold extraction solvent (acetonitrile–methanol, 1:1, v/v) for reaction termination. Subsequently, the samples were placed into the freezer (−20 °C) for at least an hour, centrifuged (15 min, 18,000g, 4 °C), and further diluted in methanol–water (3:7, v/v) prior to LC–MS measurements. In the solvent control, the toxin was substituted with DMSO in the incubation solution. Control incubations were performed without the cofactor NADPH or with heat-inactivated microsomes (98 °C, 10 min, mixing at 300 rpm).
The quantification of selected analytes using external calibration (MS parameters listed in Supporting Information Table S1) was conducted on a high-performance liquid chromatographic system (Dionex UltiMate 3000 UHPLC, Dionex Softron GmbH, Germering, Germany) coupled to a triple quadrupole mass spectrometer (TSQ Vantage, Thermo Fisher Scientific, Waltham, MA, USA), equipped with a heated electrospray ionization (ESI) interface. The applied analytical method is based on Puntscher et al.[28],[36] with slight modifications, which are specified below.
In brief, the Ascentis Express C18 column (10 cm × 2.1 mm, 2.7 μm, Supelco, Munich, DE), equipped with the Phenomenex SecurityGuard (C18 Cartridges, 4 × 2.0 mm ID, Phenomenex Ltd. Deutschland, Aschaffenburg, Germany), served as the stationary phase. Eluent A was aqueous ammonium acetate (5 mM, pH adjusted to 8.6 with a 25% ammonia solution), and eluent B was methanol. During the first minute, the column was kept at 30% eluent B. Subsequently, the eluent B content was linearly raised to 100% within 6 min. Thereafter, the column was washed with 100% eluent B for 1.5 min. Lastly, the column was re-equilibrated at the initial conditions, reaching an overall run time of 10 min. The autosampler compartment was kept at 10 °C, while the column oven temperature was maintained at 30 °C. […]

The conditions of data set [2]: Caco-2 cell monolayers; cited from earlier work.
Data set [3] in a line: Pattern of oxidative metabolites in rat LMs by HR-MS. In kind it is in vitro ADME, Sprague–Dawley rat. As to conditions: rat LMs incubated with AME. The protocol:
The kinetics of the phase I metabolism of AOH and AME was investigated by incubating human, rat (both 1 mg protein/mL), and porcine LMs (2 mg protein/mL) with 1, 10, 20, 50, and 100 μM AOH or 1, 10, 20, and 50 μM AME based on the protocol by Al-Subeihi et al.[34] The incubation solution contained a final concentration of 3 mM NADPH and 1 mM ascorbic acid in 200 mM Tris–HCl (pH 7.4). After preincubation (37 °C, 1 min, mixing at 250–300 rpm), the toxin stock was added in a 1:100 dilution, resulting in a total DMSO content of 1% and the desired toxin concentration. DMSO was selected for this assay because it is the least inhibitory of the solvents studied by Busby et al. on CYP1A1,[35] the primary enzyme involved in the hydroxylation of AOH and AME.[26] The well-established solubility of the test compounds in DMSO and DMSO-containing aqueous buffers facilitated laboratory work and ensured consistency with existing literature, thereby improving the comparability of results across studies, including those of Pfeiffer and colleagues.[25] […]
Pooled high-resolution MS (HR-MS) samples were analyzed on a Vanquish UHPLC system (Thermo Fisher Scientific, Waltham, MA, USA) connected to a dual-pressure linear trap-quadrupole Orbitrap mass analyzer (Velos ETD, Thermo Fisher Scientific, Waltham, MA, USA). […]

Read-outs that look alike come from different tables or passages of the source.

For `Cc1cc(O)cc2oc(=O)c3c(O)cc(O)cc3c12` [AOH, alternariol], the Concentration decrease in data set [1] (human LMs, 1 µM toxin, 5 min) was 28%; in data set [1] (human LMs, 1 µM toxin, 10 min), 53%; in data set [1] (human LMs, 10 µM toxin, 5 min) it was 11%; in data set [1] (human LMs, 10 µM toxin, 10 min), 17%; in data set [1] (human LMs, 20 µM toxin, 5 min), 10%; in data set [1] (human LMs, 20 µM toxin, 10 min) it was 20%. For the same molecule, the Concentration decrease in data set [1] (human LMs, 50 µM toxin, 5 min) was found to be 12%; in data set [1] (human LMs, 50 µM toxin, 10 min), 22%; in data set [1] (human LMs, 100 µM toxin, 5 min), 20%; in data set [1] (human LMs, 100 µM toxin, 10 min) it was 39%. The “Vmax (maximum transformation rate)” value in data set [1] (human LMs, within 10 min, Michaelis–Menten model) turned out to be 3370 pmol/mg/min. Besides, the microsomal CLint in data set [1] (male, liver microsomes, Michaelis–Menten model, ratio Vmax/Km) was determined as 25.8 µL/min/mg; in data set [1] (male, liver microsomes, linear regression, lower concentration range), 19.9 µL/min/mg. Moreover, the Michaelis-Menten constant (Km) in data set [1] (male, liver microsomes, pH 7.4, human LMs 1 mg protein/mL, NADPH, within 10 min, Michaelis–Menten model, read-out: Km (Michaelis constant)) worked out at 131 µM. Also, in data set [2], the intestinal absorption entry is on record as “limited intestinal absorption”. In data set [3], the “relative abundance among phase I metabolites (in words)” value is listed as “one of the main metabolites”.

The Km is the concentration of substrate that gives half-maximal velocity.
